Drawing on the SangsterLogP compilation, this text covers logP for 87 compounds.

The data set can be described thus: method code SF-AS, from DOI: 10.1897/1552-8618(1992)11[901:aapohp]2.0.co;2.
For orientation: logP means the decadic logarithm of the partition coefficient of the neutral form, usually between octanol and water. A high value points to a more lipophilic compound. Regarding `CC(=O)Nc1cc(Cl)cc(Cl)c1`, the lipophilicity (logP) came out at 3.17. In the case of `CC(=O)Nc1ccc(Cl)cc1F` it was 1.91; in that of `CCc1ccccc1OC`, 3.18. Consider `COc1ccc(C)c(OC)c1`, for which the logP is 2.76. In the case of `CCCCc1ccc(NC(C)=O)cc1C` it was 3.64; in that of `CC(=O)Nc1ccccc1Oc1ccccc1`, 2.37. Then `CCc1cccc(C)c1NC(C)=O`, with 1.41; and `COc1cccc(OC)c1C`, with 2.87. Then `CC(=O)Nc1ccc(C)c(C)c1`, with 2.1. The compound `CC(=O)Nc1cc(C(F)(F)F)cc(C(F)(F)F)c1Br` displayed a logP of 3.51. `CC(=O)Nc1cc(C)cc(C)c1` displayed a logP of 2.17. Then `COc1c(C)cccc1C`, with 3.02; and `CC(=O)Nc1ccccc1-c1ccccc1`, with 2.02. In the case of `Cc1ccccc1C(N)=O` it was 0.76; in that of `COc1cccc(Cl)c1C(N)=O`, 0.59.

Regarding `CC(=O)Nc1c(Cl)cccc1Cl`, the logP came to 1.32. Then `CC(=O)Nc1ccccc1F`, with 1.03; and `CC(=O)Nc1cc(Cl)cc(C(F)(F)F)c1F`, with 3.15. In the case of `NC(=O)c1ccccc1I` it was 0.93; in that of `CC(=O)Nc1cc(C(F)(F)F)c(Cl)cc1Cl`, 3.24; in that of `CC(=O)Nc1ccc(C)c(Cl)c1`, 2.69. With `CC(=O)Nc1cccc([N+](=O)[O-])c1`, the logP turned out to be 1.47. In the case of `CC(C)c1ccccc1[N+](=O)[O-]` it was 3.34; in that of `NC(=O)c1c(Cl)cccc1[N+](=O)[O-]`, 0.12. In the case of `CC(=O)Nc1cc(Cl)c(Cl)c(Cl)c1` it was 3.76; in that of `O=[N+]([O-])c1cc(C(F)(F)F)cc([N+](=O)[O-])c1Cl`, 2.5. Then `NC(=O)c1ccccc1C(F)(F)F`, with 0.68; and `COc1cccc([N+](=O)[O-])c1C`, with 2.68. For the compound `COc1c(Cl)cccc1NC(C)=O`, the logP was determined as 1.68. In the case of `CC(C)c1ccccc1C(N)=O` it was 1.39; in that of `CC(=O)Nc1c(C)cc(C)cc1[N+](=O)[O-]`, 1.18; in that of `CCCCc1ccc(NC(C)=O)c([N+](=O)[O-])c1`, 3.1. Then `CC(=O)Nc1cc(C)c(C)c(C)c1`, with 2.5; and `CC(=O)Nc1c(C)cccc1[N+](=O)[O-]`, with 0.61. Then `CC(=O)Nc1cc(Cl)ccc1Cl`, with 2.19; and `CCc1cccc(CC)c1NC(C)=O`, with 1.85; and `CC(=O)Nc1ccccc1I`, with 1.62. As for `CC(=O)Nc1cccc(Cl)c1C`, the logP was 1.82. In the case of `N#Cc1ccccc1C#N` it was 0.99; in that of `CC(=O)Nc1ccc(OC(F)(F)F)cc1`, 2.62; in that of `NC(=O)c1c(Cl)cccc1Br`, 1. In the case of `CCc1cccc(C(C)C)c1NC(C)=O` it was 2.1; in that of `CC(=O)Nc1cc(Cl)ccc1C`, 1.85. In the case of `CC(=O)Nc1c(F)cccc1F` it was 0.69; in that of `COc1cccc(OC)c1C(N)=O`, -0.22; in that of `CC(=O)Nc1cc(Cl)c(F)c(Cl)c1F`, 2.9.

With `CC(=O)Nc1c(C)cccc1C`, the logP was 1.07. In the case of `Cc1cccc(Cl)c1C(N)=O` it was 0.89; in that of `CC(=O)Nc1ccc(Cl)cc1Cl`, 2.18. `COc1ccc(NC(C)=O)c([N+](=O)[O-])c1` registered a logP of 1.09. Then `CC(=O)Nc1cccc(C)c1C`, with 1.35; and `CCCc1cc(NC(C)=O)ccc1OC`, with 2.72; and `CC(=O)Nc1c(C)cccc1Cl`, with 1.22. In the case of `CCCCc1ccc(NC(C)=O)cc1` it was 3.3; in that of `CC(=O)Nc1ccc(C)cc1C`, 1.46; in that of `COc1ccccc1F`, 2.14.

Compound `NC(=O)c1c(F)cccc1Br` had a log partition coefficient (logP) of 0.63. In turn, `CC(=O)Nc1cccc(Cl)c1F` gave a logP of 1.83. In the case of `CC(=O)Nc1cc(F)cc(C(F)(F)F)c1Cl` it was 2.86; in that of `CC(=O)Nc1c(C(C)C)cccc1C(C)C`, 2.41; in that of `COc1cccc([N+](=O)[O-])c1C(N)=O`, -0.26. Compound `C=CCOc1cc(NC(C)=O)c(F)cc1Cl` returned a logP of 2.76.

With `CC(=O)Nc1cccc(Cl)c1Cl`, the logP was found to be 2.09. Regarding `CC(=O)Nc1cc(C(F)(F)F)cc(Cl)c1Cl`, the logP stood at 3.27. In the case of `CC(=O)Nc1ccc(C)cc1[N+](=O)[O-]` it was 1.49; in that of `CCCCc1ccc(NC(C)=O)c(C)c1`, 3.1. In the case of `CC(=O)Nc1ccc(Cl)cc1C(F)(F)F` it was 1.98; in that of `O=[N+]([O-])c1ccc(Cl)cc1[N+](=O)[O-]`, 2.18. In the case of `COc1cccc(NC(C)=O)c1C` it was 1.13.

Compound `CC(=O)Nc1c(F)c(F)c(F)c(F)c1F` registered a logP of 1.7.

`CC(=O)Nc1ccc(Cl)c(Cl)c1Cl`: the logP came out at 2.88. `CC(=O)Nc1cc(C(F)(F)F)c(F)cc1F`: the logP was 2.34. Take `CC(=O)Nc1ccc(Cl)c(C(F)(F)F)c1`: the logP amounted to 3.33. In the case of `CC(=O)Nc1ccc(C)c(C)c1C` it was 1.76; in that of `COc1c(C)cccc1NC(C)=O`, 1.28; in that of `Cc1cccc(C)c1C(N)=O`, 0.9. In the case of `NC(=O)c1c(F)cccc1Cl` it was 0.49; in that of `CC(=O)Nc1c([N+](=O)[O-])cccc1[N+](=O)[O-]`, 0.56. In the case of `CC(=O)Nc1ccc(Cl)cc1[N+](=O)[O-]` it was 1.78; in that of `COc1ccc(OC)c(Cl)c1`, 2.69; in that of `CCc1ccccc1C(N)=O`, 1.17. As to `CC(=O)Nc1cc(C(F)(F)F)ccc1F`, the logP worked out at 2.24. In the case of `CC(=O)Nc1cc(C(F)(F)F)c(Cl)cc1F` it was 3.02; in that of `CC(=O)Nc1cc(Cl)cc(C(F)(F)F)c1Cl`, 3.27; in that of `CC(=O)Nc1cc(C)ccc1C`, 1.47. Then `CC(=O)Nc1cc(C(F)(F)F)cc(C(F)(F)F)c1`, with 3.72; and `CC(=O)Nc1ccc(Oc2ccccn2)cc1`, with 1.57.
